US20230172207A1 (BASF SE, priority 2020, published 2023)
Like-named read-outs stand apart in the source and are kept apart here.

How the values were obtained:
[1] = test system: Phakopsora pachyrhizi (F129L); experiment: Protective control of soybean rust on soybeans (PHAKPA P6); format: in vivo; conditions: for % PHAKPA (F129L) Disease level, P6 at 16 ppm: protective P6, 16 ppm; for % PHAKPA (F129L) Disease level, P6 at 4 ppm: protective P6, 4 ppm
[2] = test system: Phakopsora pachyrhizi (F129L); experiment: Protective control of soybean rust on soybeans (PHAKPA P2); format: in vivo; conditions: for % PHAKPA (F129L) Disease level, P2 at 4 ppm: protective P2, 4 ppm; for % PHAKPA (F129L) Disease level, P2 at 16 ppm: protective P2, 16 ppm
Septoria tritici = experiment: Micro titer plate test against Septoria tritici causing leaf blotch on wheat (SEPTTR); format: cell-based; conditions: 0.25 ppm
Pyricularia oryzae = experiment: microbe, parasite or virus in culture; format: cell-based
Leptosphaeria nodorum = experiment: Micro titer plate test against Leptosphaeria nodorum causing wheat leaf spots (LEPTNO); format: cell-based; conditions: for activity at 0.063 ppm: Parastagonospora nodorum, 168 h, read-out: Fungal growth (%) LEPTNO
Cercospora sojina = experiment: microbe, parasite or virus in culture; format: cell-based; conditions: 168 h, read-out: Fungal growth (%) CERCSO
Pyrenophora teres (wt) = experiment: Micro titer plate test against Pyrenophora teres causing net blotch on barley (PYRNTE wt); format: cell-based
[3] = test system: Colletotrichum orbiculare; experiment: Micro titer plate test against Colletotrichum orbiculare causing anthracnose (COLLLA); format: cell-based
Microdochium nivale = format: cell-based
[4] = test system: Pyrenophora teres (F129L); experiment: Micro titer plate test against Pyrenophora teres causing net blotch on barley (PYRNTE F129L); format: cell-based; conditions: 0.25 ppm, relative growth vs compound-free control (100%), 7 days
[5] = test system: Alternaria solani (F129L); experiment: Micro titer plate test against Alternaria solani causing early blight (ALTESO F129L); format: cell-based; conditions: relative growth vs compound-free control (100%), 7 days
Alternaria solani (wt) = experiment: microbe, parasite or virus in culture; format: cell-based
[6] = relative growth vs compound-free control (100%), 7 days
[7] = 0.063 ppm, relative growth vs compound-free control (100%), 7 days
[8] = protective, inoculation six days after spraying, % diseased leaf area
[9] = protective, inoculation 2 days after spraying, % diseased leaf area

CO/N=C(/C(=O)OC)c1cccc(C)c1CO/N=C(\OC)c1cccc(C)c1 [reference compound]
% PHAKPA (F129L) Disease level, P6 at 16 ppm [1]: 57% | % PHAKPA (F129L) Disease level, P2 at 4 ppm [2]: 83%

CO/N=C(/C(=O)OC)c1cccc(C)c1CO/N=C(\SC)c1cccc(Cl)c1 [drawing 984, reference compound]
% PHAKPA (F129L) Disease level, P6 at 16 ppm [1]: 18% | % PHAKPA (F129L) Disease level, P2 at 4 ppm [2]: 47%

CNC(=O)/C(=N/OC)c1cccc(C)c1CO/N=C(/c1cccc(C)c1)C1CC1 [drawing 960]
Fungal growth (%) SEPTTR (Septoria tritici): 87%

CNC(=O)/C(=N/OC)c1cccc(C)c1CO/N=C(\OC)c1cccc(C(F)(F)F)c1
Fungal growth (%) SEPTTR (Septoria tritici; [6]): 77%

CNC(=O)/C(=N/OC)c1cccc(C)c1CO/N=C(\SC)c1cccc(Cl)c1 [drawing 968]
Fungal growth (%) SEPTTR (Septoria tritici): 59%

CNC(=O)/C(=N/OC)c1cccc(C)c1CO/N=C(\SC)c1cccc(Cl)c1 [drawing 981, reference compound]
% PHAKPA (F129L) Disease level, P6 at 16 ppm [1]: 9% | % PHAKPA (F129L) Disease level, P2 at 4 ppm [2]: 20%

CNC(=O)/C(=N/OC)c1cccc(C)c1CO/N=C(\C)c1c(Cl)cc(Cl)cc1OC(F)(F)F [compound 428]
% PHAKPA (F129L) Disease level, P6 at 4 ppm [1]: 83% | % PHAKPA (F129L) Disease level, P6 at 16 ppm [1]: 20% | % PHAKPA (F129L) Disease level, P2 at 4 ppm [2]: 70% | % PHAKPA (F129L) Disease level, P2 at 16 ppm [2]: 11%

CO/N=C(/C(=O)OC)c1cccc(C)c1CO/N=C(\OC)c1cccc(OC(F)(F)F)c1 [reference compound]
activity at 0.016 ppm (Pyricularia oryzae; Pyricularia oryzae, 168 h, read-out: Fungal growth (%) PYRIOR): 58% | activity at 0.063 ppm (Leptosphaeria nodorum; [7]): 100% | activity at 4 ppm (Cercospora sojina): 56%

CO/N=C(/C(=O)OC)c1cccc(C)c1CO/N=C(/c1cccc(Cl)c1)C1CC1 [drawing 983, reference compound]
% PHAKPA (F129L) Disease level, P6 at 16 ppm [1]: 87% | % PHAKPA (F129L) Disease level, P2 at 4 ppm [2]: 83%

CNC(=O)/C(=N/OC)c1cccc(C)c1CO/N=C(\OC)c1cccc(C)c1 [drawing 976, reference compound]
% PHAKPA (F129L) Disease level, P6 at 16 ppm [1]: 45%

C=Cc1cccc(/C(=N\OC)C(=O)NC)c1CO/N=C(\C)c1ccccc1 [compound 400]
% PHAKPA (F129L) Disease level, P6 at 4 ppm [1]: 8% | % PHAKPA (F129L) Disease level, P6 at 16 ppm [1]: 0% | % PHAKPA (F129L) Disease level, P2 at 4 ppm [2]: 2% | % PHAKPA (F129L) Disease level, P2 at 16 ppm [2]: 0%

CNC(=O)/C(=N/OC)c1cccc(C)c1CO/N=C(\CC(F)(F)F)c1ccc(F)cc1C [compound 394]
% PHAKPA (F129L) Disease level, P6 at 4 ppm [1]: 12% | % PHAKPA (F129L) Disease level, P6 at 16 ppm [1]: 2% | % PHAKPA (F129L) Disease level, P2 at 4 ppm [2]: 9% | % PHAKPA (F129L) Disease level, P2 at 16 ppm [2]: 3%

CO/N=C(/C(=O)OC)c1cccc(C)c1CO/N=C(\C)c1cccc(C)c1 [compound 76]
Fungal growth (%) SEPTTR (Septoria tritici; [6]): 0% | PHAKPA (F129L) Disease level (%) P6 at 16 ppm [1, 8]: 0% | % PHAKPA (F129L) Disease level, P6 at 16 ppm [1]: 4% | % PHAKPA (F129L) Disease level, P2 at 4 ppm [2]: 35%

CNC(=O)/C(=N/OC)c1cccc(C)c1CO/N=C(\C)c1cccc(Cl)c1 [compound 157]
Fungal growth (%) SEPTTR (Septoria tritici): 20% | % PHAKPA (F129L) Disease level, P6 at 16 ppm [1]: 1% | PHAKPA (F129L) Disease level (%) P2 at 4 ppm ([2]; 4 ppm, protective, inoculation 2 days after spraying, % diseased leaf area): 0% | % PHAKPA (F129L) Disease level, P2 at 4 ppm [2]: 1% | Fungal growth (%) PYRNTE wt (Pyrenophora teres (wt); 0.25 ppm): 54% | Fungal growth (%) COLLLA ([3]; 0.063 ppm): 63%

CO/N=C(/C(=O)OC)c1cccc(C)c1CO/N=C(\C)c1cccc(OC(F)(F)F)c1 [compound 28]
PHAKPA (F129L) Disease level (%) P6 at 16 ppm [1, 8]: 18% | % PHAKPA (F129L) Disease level, P6 at 16 ppm ([1]; soybean rust F129L): 0% | PHAKPA (F129L) Disease level (%) P2 at 16 ppm [2, 9]: 30% | % PHAKPA (F129L) Disease level, P2 at 16 ppm ([2]; soybean rust F129L): 0%

CNC(=O)/C(=N/OC)c1cccc(C)c1CO/N=C(\SC)c1cccc(C(F)(F)F)c1 [reference compound]
% PHAKPA (F129L) Disease level, P6 at 4 ppm [1]: 43%

CO/N=C(/C(=O)OC)c1cccc(C)c1CO/N=C(\SC)c1cccc(C)c1 [drawing 974, reference compound]
% PHAKPA (F129L) Disease level, P6 at 16 ppm [1]: 30% | % PHAKPA (F129L) Disease level, P2 at 4 ppm [2]: 60%

CNC(=O)/C(=N/OC)c1cccc(C)c1CO/N=C(\C)c1cc(F)cc(F)c1 [compound 84]
% PHAKPA (F129L) Disease level, P6 at 4 ppm ([1]; soybean rust F129L): 0% | % PHAKPA (F129L) Disease level, P6 at 16 ppm ([1]; soybean rust F129L): 0% | Fungal growth (%) MONGNI (Microdochium nivale): 32% | Fungal growth (%) PYRNTE F129L [4]: 49% | % PHAKPA (F129L) Disease level, P2 at 4 ppm ([2]; soybean rust F129L): 0% | % PHAKPA (F129L) Disease level, P2 at 16 ppm ([2]; soybean rust F129L): 0% | Fungal growth (%) ALTEO F129L ([5]; 4 ppm): 39% | Fungal growth (%) PYRIOR (Pyricularia oryzae; 0.016 ppm, relative growth vs compound-free control (100%), 7 days): 48% | Fungal growth (%) PYRNTE wt (Pyrenophora teres (wt)): 39% | Fungal growth (%) LEPTNO (Leptosphaeria nodorum): 60% | Fungal growth (%) COLLLA [3]: 33% | Fungal growth (%) ALTESO wt (Alternaria solani (wt)): 43%

CO/N=C(/C(=O)OC)c1cccc(C)c1CO/N=C(\SC)c1cccc(Cl)c1 [drawing 962]
Fungal growth (%) SEPTTR (Septoria tritici): 39%

CO/N=C(/C(=O)OC)c1cccc(C)c1CO/N=C(\SC)c1cccc(C)c1 [drawing 952]
Fungal growth (%) SEPTTR (Septoria tritici; [6]): 61%

CNC(=O)/C(=N/OC)c1cccc(C)c1CO/N=C(\C)c1cccc(C(F)(F)F)c1 [compound 8]
PHAKPA (F129L) Disease level (%) P6 at 4 ppm ([1]; 4 ppm, protective, inoculation six days after spraying, % diseased leaf area): 13% | % PHAKPA (F129L) Disease level, P6 at 4 ppm [1]: 1% | Fungal growth (%) ALTESO F129L ([5]; 0.016 ppm, listed as Ex. 8): 52% | Fungal growth (%) LEPTNO (Leptosphaeria nodorum; [7]): 70%

CO/N=C(/C(=O)OC)c1cccc(C)c1CO/N=C(/c1cccc(C)c1)C1CC1 [drawing 973, reference compound]
% PHAKPA (F129L) Disease level, P6 at 16 ppm [1]: 37% | % PHAKPA (F129L) Disease level, P2 at 4 ppm [2]: 80%

CNC(=O)/C(=N/OC)c1cccc(C)c1CO/N=C(/c1cccc(C)c1)C1CC1 [drawing 977, reference compound]
% PHAKPA (F129L) Disease level, P6 at 16 ppm [1]: 67% | % PHAKPA (F129L) Disease level, P2 at 4 ppm [2]: 67%

CNC(=O)/C(=N/OC)c1cccc(C)c1CO/N=C(\C)c1ccccc1C [compound 127]
% PHAKPA (F129L) Disease level, P6 at 4 ppm ([1]; soybean rust F129L): 93% | % PHAKPA (F129L) Disease level, P6 at 16 ppm ([1]; soybean rust F129L): 62% | % PHAKPA (F129L) Disease level, P2 at 4 ppm ([2]; soybean rust F129L): 90% | % PHAKPA (F129L) Disease level, P2 at 16 ppm ([2]; soybean rust F129L): 44%

CO/N=C(/C(=O)OC)c1cccc(C)c1CO/N=C(\C)c1ccccc1F [Ex. 1]
PHAKPA (F129L) Disease level (%) P6 at 16 ppm [1, 8]: 47% | % PHAKPA (F129L) Disease level, P6 at 4 ppm ([1]; soybean rust F129L): 90% | % PHAKPA (F129L) Disease level, P6 at 16 ppm ([1]; soybean rust F129L): 56% | PHAKPA (F129L) Disease level (%) P2 at 16 ppm [2, 9]: 28% | % PHAKPA (F129L) Disease level, P2 at 4 ppm ([2]; soybean rust F129L): 80% | % PHAKPA (F129L) Disease level, P2 at 16 ppm ([2]; soybean rust F129L): 27%

CO/N=C(/C(=O)OC)c1cccc(C)c1CO/N=C(\OC)c1cccc(C(F)(F)F)c1 [reference compound]
% PHAKPA (F129L) Disease level, P6 at 16 ppm [1]: 23%

CO/N=C(/C(=O)OC)c1cccc(C)c1CO/N=C(\C)c1cccc(C)c1 [drawing 956, reference compound]
activity at 0.016 ppm ([5]; Alternaria solani, 168 h, 0.016 ppm, read-out: Fungal growth (%) ALTESO F129L): 81% | activity at 0.25 ppm (Pyrenophora teres (wt); Pyrenophora teres, 168 h, 0.25 ppm, relative growth vs compound-free control (100%), 7 days, read-out: Fungal growth (%) PYRNTE wt): 53% | activity at 0.063 ppm (Leptosphaeria nodorum; [7]): 65% | activity at 0.016 ppm (Alternaria solani (wt); Alternaria solani, 168 h, read-out: Fungal growth (%) ALTESO wt): 93% | activity at 4 ppm (Cercospora sojina): 67%

CNC(=O)/C(=N/OC)c1cccc(C)c1CO/N=C(\C)c1cccc(C)c1 [compound 77]
Fungal growth (%) SEPTTR (Septoria tritici): 49% | Fungal growth (%) COLLLA ([3]; 0.063 ppm): 39%

CNC(=O)/C(=N/OC)c1cccc(C)c1CO/N=C(\OC)c1cccc(C)c1 [drawing 959]
Fungal growth (%) SEPTTR (Septoria tritici): 100%

CO/N=C(/C(=O)OC)c1cccc(C)c1CO/N=C(\C)c1cccc(C(F)(F)F)c1 [compound 9]
PHAKPA (F129L) Disease level (%) P6 at 16 ppm [1, 8]: 4% | % PHAKPA (F129L) Disease level, P6 at 16 ppm [1]: 1%

CO/N=C(/C(=O)OC)c1cccc(C)c1CO/N=C(\C)c1cccc(Cl)c1 [compound 153]
Fungal growth (%) SEPTTR (Septoria tritici): 0% | PHAKPA (F129L) Disease level (%) P6 at 16 ppm [1, 8]: 1% | % PHAKPA (F129L) Disease level, P6 at 16 ppm [1]: 5% | % PHAKPA (F129L) Disease level, P2 at 4 ppm [2]: 19% | Fungal growth (%) PYRNTE wt (Pyrenophora teres (wt); 0.25 ppm): 31% | Fungal growth (%) LEPTNO (Leptosphaeria nodorum; 0.063 ppm): 55% | Fungal growth (%) COLLLA ([3]; 0.063 ppm): 55%

CO/N=C(/C(=O)OC)c1cccc(C)c1CO/N=C(/c1cccc(Cl)c1)C1CC1 [drawing 963]
Fungal growth (%) SEPTTR (Septoria tritici): 39%

CO/N=C(/C(=O)OC)c1cccc(C)c1CO/N=C(/c1cccc(C)c1)C1CC1 [drawing 953]
Fungal growth (%) SEPTTR (Septoria tritici; [6]): 89%
